Source: the supplement of paper PMC6045584
± gives the standard deviation of the averaged measurements.

Columns and labels:
[1] = compound: Cc1ccc(NC(=O)c2ccc(CN3CCN(C)CC3)cc2)cc1Nc1nccc(-c2cccnc2)n1 [IMATINIB]; experiment: surviving fraction relative to DMSO-only wells; higher = less growth inhibition; details: exposure time: 5 days
Outline: (§1)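 For each tumour cell line, log-phase cells were put into 384-well plates at 250–500 cells per well, then after 24 hours exposed continuously for five days to inhibitors at 0.5, 1, 5, 10, 50, 100, 500 and 1000 nM. Viability was assessed by CellTiter-Glo luminescence, with surviving fraction expressed relative to the median of DMSO-only wells. Lines were screened three times and retained only if replicate Pearson r exceeded 0.7 and median Z' exceeded 0.3.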

[2] = compound: C[C@H](CN(C)C)Oc1nc(Nc2cc3cccc(Cl)c3cn2)cnc1C#N; experiment: as above; details: exposure time: 5 days
Outline: as §1

Row | Test System | surviving fraction ([1]; 0.5 nM) | surviving fraction ([1]; 1 nM) | surviving fraction ([1]; 5 nM) | surviving fraction ([1]; 10 nM) | surviving fraction ([1]; 500 nM) | surviving fraction ([2]; 0.5 nM) | surviving fraction ([2]; 1 nM) | surviving fraction ([2]; 5 nM) | surviving fraction ([2]; 10 nM) | surviving fraction ([2]; 50 nM) | surviving fraction ([2]; 100 nM) | surviving fraction ([2]; 500 nM) | surviving fraction ([2]; 1000 nM) | surviving fraction ([1]; 50 nM) | surviving fraction ([1]; 100 nM) | surviving fraction ([1]; 1000 nM)
1 | 22RV1 PROSTATE | 1.06 ± 0.068 | 1.08 ± 0.019 | 1 ± 0.1 | 1.05 ± 0.046 | 1.14 ± 0.14 | 1.15 ± 0.15 | 1.02 ± 0.071 | 1.01 ± 0.074 | 1.06 ± 0.15 | 0.999 ± 0.046 | 0.887 ± 0.14 | 1.03 ± 0.037 | 0.838 ± 0.12 | – | – | –
2 | 93VU HEADNECK | 1.11 ± 0.14 | 1.13 ± 0.1 | 1.18 ± 0.019 | – | 1.29 ± 0.074 | 0.995 ± 0.04 | 1.04 ± 0.079 | 1.04 ± 0.06 | 1.09 ± 0.039 | 1.03 ± 0.11 | 1.14 ± 0.1 | 0.865 ± 0.066 | 0.976 ± 0.09 | 1.3 ± 0.099 | 1.25 ± 0.047 | 1.1 ± 0.079
3 | 143B BONE | 1.07 ± 0.022 | 1.1 ± 0.03 | – | 1.1 ± 0.013 | 1.15 ± 0.1 | 0.939 ± 0.1 | 1.08 ± 0.053 | 1.08 ± 0.035 | 1.05 ± 0.012 | 1.026 ± 0.0092 | 1.05 ± 0.024 | 0.519 ± 0.031 | 0.078 ± 0.021 | 1.14 ± 0.043 | – | 1.14 ± 0.11
4 | A549 LUNG | 1.09 ± 0.035 | 1.07 ± 0.026 | 1.11 ± 0.041 | 1.09 ± 0.041 | – | 1.04 ± 0.03 | 1.02 ± 0.02 | 1.02 ± 0.024 | 0.994 ± 0.018 | 1.09 ± 0.039 | 1.06 ± 0.039 | 0.967 ± 0.02 | 0.601 ± 0.027 | 1.11 ± 0.049 | 1.1 ± 0.033 | 1.12 ± 0.016
5 | ASKA SYNOVIAL | 1.1 ± 0.017 | 1.09 ± 0.03 | 1.23 ± 0.1 | 1.08 ± 0.095 | 1.21 ± 0.095 | 1.05 ± 0.055 | 1.13 ± 0.083 | 1.11 ± 0.087 | 1.06 ± 0.082 | 0.994 ± 0.061 | 0.852 ± 0.041 | 0.432 ± 0.032 | 0.438 ± 0.0075 | – | 1.19 ± 0.1 | 1.07 ± 0.094
6 | BT20 BREAST | 1.21 ± 0.064 | 1.22 ± 0.12 | – | 1.16 ± 0.062 | 1.45 ± 0.19 | 1.14 ± 0.095 | 1.15 ± 0.081 | 1.22 ± 0.083 | 1.14 ± 0.072 | 1.19 ± 0.093 | 1.31 ± 0.072 | 1.35 ± 0.079 | 1.21 ± 0.093 | – | 1.14 ± 0.033 | 1.46 ± 0.035
7 | BT549 BREAST | 1.15 ± 0.1 | 1.13 ± 0.068 | – | 1.12 ± 0.044 | 1.21 ± 0.11 | 1.12 ± 0.055 | 1.14 ± 0.12 | 1.05 ± 0.1 | 1.1 ± 0.044 | 1.1 ± 0.076 | 0.896 ± 0.095 | 0.141 ± 0.024 | 0.0517 ± 0.011 | – | 1.17 ± 0.04 | 1.1 ± 0.15
8 | C33A CERVIX | 0.921 ± 0.058 | 0.999 ± 0.073 | – | 1.09 ± 0.1 | 1.05 ± 0.022 | 0.856 ± 0.057 | 0.979 ± 0.11 | 0.903 ± 0.041 | 0.994 ± 0.094 | 0.97 ± 0.074 | 0.937 ± 0.14 | 0.524 ± 0.04 | 0.814 ± 0.054 | 1.15 ± 0.08 | – | 1.08 ± 0.045
9 | CADOES1 SOFT TISSUE | 0.94 ± 0.11 | 0.897 ± 0.035 | 0.926 ± 0.08 | 0.872 ± 0.012 | 1.03 ± 0.085 | 0.789 ± 0.054 | 0.94 ± 0.018 | 0.867 ± 0.069 | 0.894 ± 0.031 | 0.814 ± 0.14 | 0.726 ± 0.056 | 0.294 ± 0.048 | 0.148 ± 0.015 | – | 0.948 ± 0.02 | 1.05 ± 0.14
10 | CAL51 BREAST | 1.04 ± 0.096 | – | 1.08 ± 0.036 | 1.06 ± 0.055 | 1.1 ± 0.012 | 0.939 ± 0.051 | 0.961 ± 0.065 | 1.03 ± 0.025 | 0.922 ± 0.047 | 0.982 ± 0.062 | 0.855 ± 0.053 | 0.272 ± 0.049 | 0.123 ± 0.037 | 1.08 ± 0.024 | 1.06 ± 0.033 | 1.09 ± 0.054
11 | CAL72 BONE | 1.11 ± 0.14 | 1.09 ± 0.11 | 1.12 ± 0.065 | 1.07 ± 0.1 | 1.12 ± 0.14 | 1.06 ± 0.1 | 1.08 ± 0.13 | 1.06 ± 0.099 | 1.03 ± 0.12 | 1.09 ± 0.1 | 0.981 ± 0.12 | 0.402 ± 0.076 | 0.137 ± 0.037 | 1.15 ± 0.2 | – | 1.14 ± 0.087
12 | CAL120 BREAST | 0.995 ± 0.073 | 0.978 ± 0.041 | 0.994 ± 0.091 | – | 1.04 ± 0.044 | 0.928 ± 0.063 | 0.922 ± 0.076 | 0.965 ± 0.057 | 0.934 ± 0.047 | 0.957 ± 0.069 | 0.917 ± 0.03 | 0.9 ± 0.07 | 0.745 ± 0.027 | 1.03 ± 0.021 | 0.97 ± 0.045 | 0.992 ± 0.07
13 | CASKI CERVIX | 0.935 ± 0.028 | 0.9783 ± 0.0081 | 1.01 ± 0.048 | 0.962 ± 0.029 | 0.919 ± 0.037 | 0.839 ± 0.052 | 0.909 ± 0.086 | 0.959 ± 0.032 | 0.922 ± 0.02 | 1.009 ± 0.01 | 0.9417 ± 0.0087 | 0.217 ± 0.011 | 0.12 ± 0.01 | 1.06 ± 0.042 | 1.06 ± 0.06 | 1 ± 0.04
14 | CHLA90 AUTONOMIC GANGLIA | 1 ± 0.022 | 1.02 ± 0.071 | 0.993 ± 0.063 | 0.98 ± 0.12 | – | 0.977 ± 0.064 | 0.961 ± 0.058 | 0.913 ± 0.041 | 0.912 ± 0.034 | 0.94 ± 0.048 | 0.904 ± 0.075 | 0.46 ± 0.084 | 0.236 ± 0.048 | 1.12 ± 0.084 | 1.02 ± 0.091 | 1.11 ± 0.079
15 | CME SYNOVIAL | 1.27 ± 0.17 | 1.4 ± 0.045 | 1.28 ± 0.03 | 1.24 ± 0.16 | 1.15 ± 0.047 | 1.21 ± 0.15 | 1.3 ± 0.16 | 1.28 ± 0.11 | 1.36 ± 0.18 | 1.32 ± 0.11 | 1.47 ± 0.17 | 1.14 ± 0.059 | 1.02 ± 0.15 | 1.22 ± 0.1 | 1.37 ± 0.042 | 1.14 ± 0.055
16 | COLO320DM LARGE INTESTINE | 1.1 ± 0.17 | 1.14 ± 0.052 | 1.08 ± 0.16 | 1.12 ± 0.11 | 1.15 ± 0.12 | 1.04 ± 0.17 | 1.07 ± 0.09 | 1.01 ± 0.069 | 1.13 ± 0.068 | 1.06 ± 0.066 | 0.896 ± 0.084 | 0.235 ± 0.027 | 0.154 ± 0.027 | 1.12 ± 0.12 | 1.14 ± 0.098 | 1.16 ± 0.039
17 | DU4475 BREAST | 1.04 ± 0.18 | 1.1 ± 0.028 | – | 1.11 ± 0.13 | 1.21 ± 0.049 | 1 ± 0.29 | 0.794 ± 0.19 | 0.918 ± 0.04 | 0.753 ± 0.064 | 0.777 ± 0.2 | 1.18 ± 0.25 | 0.476 ± 0.076 | 0.337 ± 0.095 | 1.09 ± 0.15 | – | 1.09 ± 0.1
18 | H23 LUNG | 1.04 ± 0.049 | 1.01 ± 0.021 | 1.06 ± 0.031 | 1.07 ± 0.0035 | 1.12 ± 0.066 | 1 ± 0.058 | 0.99 ± 0.033 | 1 ± 0.064 | 0.989 ± 0.024 | 1.06 ± 0.082 | 1.02 ± 0.038 | 1 ± 0.092 | 0.919 ± 0.079 | 1.08 ± 0.07 | 1.13 ± 0.061 | 1.13 ± 0.065
19 | HCC78 LUNG | 0.936 ± 0.094 | 1.03 ± 0.16 | 0.997 ± 0.043 | – | 1.34 ± 0.16 | 0.677 ± 0.09 | 0.908 ± 0.11 | 0.832 ± 0.17 | 0.984 ± 0.022 | 0.832 ± 0.15 | 0.919 ± 0.12 | 0.317 ± 0.1 | 0.131 ± 0.041 | 1.04 ± 0.072 | – | 1.18 ± 0.091
20 | HCC202 BREAST | 1.44 ± 0.69 | 0.908 ± 0.013 | 1.28 ± 0.18 | – | 1.3 ± 0.15 | 1.08 ± 0.39 | 1.03 ± 0.41 | 1.22 ± 0.065 | 1.01 ± 0.022 | 0.984 ± 0.052 | 0.886 ± 0.34 | 0.413 ± 0.071 | 0.376 ± 0.04 | 1.11 ± 0.34 | 1.32 ± 0.45 | 1.39 ± 0.35
21 | HCC1395 BREAST | 1.23 ± 0.023 | 1.06 ± 0.11 | 1.24 ± 0.097 | 1.36 ± 0.13 | 1.15 ± 0.068 | 0.957 ± 0.076 | 1.14 ± 0.13 | 1.161 ± 0.011 | 1.15 ± 0.14 | 1.27 ± 0.16 | 1.22 ± 0.029 | 0.729 ± 0.1 | 0.671 ± 0.15 | 1.19 ± 0.16 | 1.36 ± 0.049 | 1.11 ± 0.29
22 | HCC1806 BREAST | 1.06 ± 0.044 | 1.05 ± 0.093 | 1.12 ± 0.07 | 1.16 ± 0.021 | 0.983 ± 0.077 | 1.14 ± 0.095 | 1.09 ± 0.062 | 1.25 ± 0.2 | 1.13 ± 0.055 | 0.991 ± 0.068 | 0.633 ± 0.069 | 0.0587 ± 0.008 | 0.0547 ± 0.0029 | 1.15 ± 0.15 | 1.24 ± 0.08 | 0.956 ± 0.15
